Where a name gives a salt, the structure may show the parent alone.

Test [1] relates to MDA-468 human breast cancer cells. Kind of test: MDA-468 breast cancer tumor growth in mammary fat pads. Format: in vivo, mouse. The settings on record: diet 75 mg/kg/day. As to the method:
The mice were assigned to a control diet treatment or a GW3965-supplemented diet treatment (75 mg/kg/day) two days prior to injection of the cancer cells.

Test [2] has as its system MeWo human melanoma tumors. Kind of test: tumor histochemistry (MECA-32, Ki-67, cleaved caspase-3). It counts as in vivo, mouse. The text has this:
Animals were intracardially perfused with PBS followed by 4% paraformaldehyde (PFA). Fixed lungs were embedded in paraffin and sectioned into 5-μm-thick increments. Macroscopic lung metastatic nodules were visualized by H&E staining. For analysis of tumor endothelial cell content, proliferation, and apoptosis, primary tumor paraffin-embedded sections were stained with antibodies against MECA-32 (Developmental Studies Hybridoma Bank, University of Iowa), KI-67 (ab15580, Abcam), and cleaved caspase-3 (9661, Cell Signaling), respectively.
Tumors were excised from mice and fixed in 4% paraformaldehyde at 4° C. for 48 hours. Then, tumors were paraffin-embedded and sectioned into 5-μm-thick increments. For endothelial cell content analysis in tumors, tumor sections were stained with a primary antibody against the mouse endothelial cell marker MECA-32 (Developmental Studies Hybridoma Bank, The University of Iowa, IA) and counterstained with DAPI nuclear stain. To determine tumor cell proliferation and apoptosis, tumor sections were stained with antibodies against the proliferative marker Ki-67 (Abcam, ab15580, Cambridge, Mass.) and the apoptotic marker cleaved caspase-3 (9661, Cell Signaling, Danvers, Mass.), respectively. Various Alexa Flour dye-conjugated secondary antibodies were used to detect primary antibodies. […] Endothelial cell content density and tumor proliferation rate were quantified by calculating the average percentage of MECA-32 or Ki-67 positively-staining area out of the total tumor area. Tumor apoptosis was measured by counting the number of cleaved caspase-3 expressing cells per given tumor area.

In test [3] the test system is DNAJA4 expression in MeWo cells. Kind of test: DNAJA4 mRNA expression by qRT-PCR in melanoma cells. Format: cell-based, human. The note with it: parental MeWo cells, 48 hours. Here is the method: Total RNA was extracted from various cell lines using the miRvana kit (AM1560, Applied Biosystems, Austin, Tex.). The expression levels of mature miRNAs were quantified using the Taqman miRNA expression assay (4427975-0002228, Applied Biosystems). RNU44 was used as an endogenous control for normalization. For mRNA expression analyses, 600 ng of total RNA was reverse transcribed using the cDNA First-Strand Synthesis Kit (18080-051, Invitrogen), and roughly 200 ng of the resulting cDNA was then mixed with SYBR green PCR Master Mix (4309155, Applied Biosystems) and the appropriate primers. Each reaction was performed in quadruplicate, and mRNA expression was quantified by performing real-time PCR amplification using an ABI Prism 7900HT Real-Time PCR System (Applied Biosystems). GAPDH was used as an endogenous control for normalization. The following primers were used: […]
In general terms: In qPCR the cycle at which signal appears reflects the starting amount.

In test [4] the test system is B-RafV600E/+; Pten−/−; CDKN2A−/− primary mouse melanoma cells. Kind of test: B-RafV600E/+; Pten−/−; CDKN2A−/− melanoma cells in syngeneic mice. Format: in vivo. Here is the method:
Melanoma cells used for in vivo metastasis assays were transduced with a stably expressed retroviral construct encoding a luciferase reporter gene (Ponomarev et al., 2004), allowing us to monitor the in vivo progression of melanoma cells by bioluminescence imaging. The following numbers of melanoma cells, resuspended in 100 μL of PBS, were injected intravenously via the tail-vein: 4×10^4 MeWo cells, 2.5×10^5 HT-144 cells, 2×10^5 SK-Mel-334.2 cells, 5×10^4B 16F10 cells, and 1×10^5YUMM cells. The MeWo, HT-144, and SK-Mel-334.2 cells were injected into 6-8 week-old sex-matched NOD scid mice, while the B16F10 and YUMM cells were injected into 6-8 week-old sex-matched C57BL/6 mice. […] To assess the effect of GW3965 treatment on brain metastasis, 1×10^5 MeWo brain-metastatic derivatives were injected intracardially into athymic nude mice. Immediately following injection, mice were randomly assigned to a control diet or GW3965-supplemented diet (100 mg/kg). To determine whether oral delivery of GW3965 can inhibit the progression of incipient metastasis, NOD Scid mice were intravenously injected with 4×10^4MeWo cells and the cells were allowed to colonize the lungs for 42 days, after which mice were blindedly assigned to a control diet or a GW3965-supplemented diet (100 mg/kg) treatment.

Test [5] deals with MeWo-LM2 cells or endothelial cells. Kind of test: serum starvation assay. It counts as cell-based, human. The settings on record: 100 μM, 0.2% FBS. Here is the method:
The number of viable cells was counter after 8, 16, and 24 hours.

Test [6] deals with VEGF-induced endothelial recruitment. Kind of test: in vivo matrigel plug assay. Also on record: species or system mouse. The note with it: VEGF 400 ng/mL + 10 μg/mL. Here is the method:
10 μg/mL recombinant human ApoE3 (4696, BioVision), 10 μg/mL BSA (A2153, Sigma Aldrich), or 400 ng/ml VEGF were mixed with matrigel (356231, BD Biosciences) as indicated. 400 μL of matrigel containing the indicated recombinant proteins were injected subcutaneously just above the ventral flank of immunocompromised NOD-SCID mice. Plugs were extracted on day 3 post-injection and fixed in 4% paraformaldehyde for 48 hours. Plugs were then paraffin-embedded and sectioned at 5-μm-thick increments. Plug cross-sectional sections were immunohistochemically stained using a primary antibody against the mouse endothelial antigen MECA-32 (Developmental Studies Hybridoma Bank, The University of Iowa, IA), detected by peroxidase-conjugated secondary antibody, and subsequently visualized by DAB oxidization. To quantify the extent of endothelial cell invasion into each matrigel plug, the number of endothelial cells was counted in 4-5 random fields for each plug, and the average number of endothelial cells per given plug area was calculated.

Regarding `O=C(O)Cc1cccc(OCCCN(Cc2cccc(C(F)(F)F)c2Cl)CC(c2ccccc2)c2ccccc2)c1` [GW3965 2, 3-[3-[N-(2-Chloro-3-trifluoromethylbenzyl)-(2,2-diphenylethyl)amino]propyloxy] phenylacetic acid hydrochloride], the “breast cancer tumor size in vivo” value in test [1] is “significant reduction”. Further, in test [2] (Ki-67), the “decrease in number of actively proliferating tumor cells in vivo” value was determined as 23%. Also, the “number of apoptotic cells” value in test [2] (cleaved caspase-3) is “without a change”. The “reduction in endothelial cell content of tumors” value in test [2] (diet 20 mg/kg, 35 days, MECA-32) is on record as “roughly 2 fold”. Moreover, the “expression of DNAJA4” value in test [3] is “increased expression”. In test [4] (chow 100 mg/kg), the tumor growth result is listed as “robustly inhibited”. In addition, in test [4] (diet 100 mg/kg), the lung metastasis result is listed as “robustly inhibited” and the overall survival entry was “extended”.
For “recombinant ApoE3: recombinant human ApoE3 (4696, BioVision)”, in test [5], the “survival in serum starvation conditions” value is recorded as “did not affect”. Further, the “suppression of VEGF-induced endothelial recruitment into subcutaneous matrigel plugs” value in test [6] is given as “greater than 40 fold”.

(Values after patent publication US10543183B2, “Treatment and diagnosis of melanoma” (The Rockefeller University, priority 2012, dated 2020).)
